Experimental data reported in ChEMBL document CHEMBL1201862, “PubChem BioAssay data set” (2004).
Calls of active or inactive are those of the source.

Columns and labels:
[1] = Shn3 3'UTR reporter inhibitors, dose response, cell-based, Clone20 osteoblasts, firefly luciferase, cherry-picked (AID 624132); assay type: functional;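 note: firefly luciferase luminescence from reporter carrying the Shn3 3'UTR in osteoblasts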
[2] = control 3'UTR Renilla luciferase suppression, dose response, counter-screen for Shn3 inhibitor project, cell-based, Clone20-Shn3RL, cherry-picked (AID 624133); assay type: functional
[3] = HepG2 cell cytotoxicity, dose response, cytotoxicity control for Shn3 inhibitor project, CellTiter-Glo, cherry-picked (AID 624134); assay type: functional, cell-based
[4] = target: T1, Protein skinhead-1 (Caenorhabditis elegans, UniProt P34707); assay type: functional
T1 sequence (P34707 whole entry): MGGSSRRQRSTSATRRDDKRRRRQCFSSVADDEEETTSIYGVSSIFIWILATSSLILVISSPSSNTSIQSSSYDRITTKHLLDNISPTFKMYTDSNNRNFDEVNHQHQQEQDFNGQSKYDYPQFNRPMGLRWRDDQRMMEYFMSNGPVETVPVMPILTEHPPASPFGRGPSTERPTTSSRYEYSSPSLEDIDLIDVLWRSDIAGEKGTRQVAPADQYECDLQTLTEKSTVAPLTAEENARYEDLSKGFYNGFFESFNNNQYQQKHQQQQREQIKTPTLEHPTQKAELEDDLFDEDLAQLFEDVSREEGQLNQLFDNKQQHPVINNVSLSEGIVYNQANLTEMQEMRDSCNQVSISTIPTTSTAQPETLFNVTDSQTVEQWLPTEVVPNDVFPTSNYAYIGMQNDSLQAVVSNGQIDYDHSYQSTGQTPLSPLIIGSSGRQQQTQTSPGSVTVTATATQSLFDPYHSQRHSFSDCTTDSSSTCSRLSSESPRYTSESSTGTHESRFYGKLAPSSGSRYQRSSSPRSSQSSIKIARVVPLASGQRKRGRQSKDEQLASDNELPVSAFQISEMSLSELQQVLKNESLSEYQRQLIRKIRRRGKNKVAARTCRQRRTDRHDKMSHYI

[5] = target: T2, Polyadenylate-binding protein 1 (Homo sapiens, UniProt P11940); assay: PABP1 MLLE–PAM2 binding inhibitor potency, dose response, biochemical, fluorescence polarization, FITC-PAM2 peptide (AID 602259); assay type: functional; conditions: read-out: IC50_Mean
T2 sequence (P11940 whole entry): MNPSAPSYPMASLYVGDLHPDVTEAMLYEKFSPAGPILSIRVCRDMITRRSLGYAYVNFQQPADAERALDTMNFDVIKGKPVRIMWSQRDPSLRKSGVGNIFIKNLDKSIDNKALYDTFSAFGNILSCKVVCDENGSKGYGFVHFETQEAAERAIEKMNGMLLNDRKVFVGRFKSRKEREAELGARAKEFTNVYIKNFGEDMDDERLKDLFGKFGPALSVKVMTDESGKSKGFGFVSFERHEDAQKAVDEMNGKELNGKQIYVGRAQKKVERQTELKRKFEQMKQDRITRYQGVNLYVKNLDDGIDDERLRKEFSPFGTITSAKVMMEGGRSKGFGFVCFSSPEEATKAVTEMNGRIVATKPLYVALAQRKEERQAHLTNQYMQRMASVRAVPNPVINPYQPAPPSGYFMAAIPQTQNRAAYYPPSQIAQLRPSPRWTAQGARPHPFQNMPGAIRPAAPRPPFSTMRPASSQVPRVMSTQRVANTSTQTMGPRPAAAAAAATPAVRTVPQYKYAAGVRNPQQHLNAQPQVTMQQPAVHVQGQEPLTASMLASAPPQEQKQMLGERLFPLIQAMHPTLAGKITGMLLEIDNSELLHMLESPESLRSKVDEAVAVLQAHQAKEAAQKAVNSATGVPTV

[6] = target: T2, Polyadenylate-binding protein 1; assay: PABP1 MLLE–PAM2 interaction inhibitors, dose response, miRNA deadenylation inhibitor project, biochemical, fluorescence polarization, Cy5-PAM2 peptide, secondary (AID 602260); assay type: functional; conditions: read-out: IC50_Mean
[7] = target: T3, Corticotropin-releasing factor receptor 2/Corticotropin-releasing factor-binding protein (Homo sapiens, UniProt P24387+Q13324); assay: activators of CRF receptor 2 with binding protein – uHTS hits, confirmation (AID 602473); assay type: functional; conditions: read-out: EC50_Mean
T3 sequence (Q13324 whole entry): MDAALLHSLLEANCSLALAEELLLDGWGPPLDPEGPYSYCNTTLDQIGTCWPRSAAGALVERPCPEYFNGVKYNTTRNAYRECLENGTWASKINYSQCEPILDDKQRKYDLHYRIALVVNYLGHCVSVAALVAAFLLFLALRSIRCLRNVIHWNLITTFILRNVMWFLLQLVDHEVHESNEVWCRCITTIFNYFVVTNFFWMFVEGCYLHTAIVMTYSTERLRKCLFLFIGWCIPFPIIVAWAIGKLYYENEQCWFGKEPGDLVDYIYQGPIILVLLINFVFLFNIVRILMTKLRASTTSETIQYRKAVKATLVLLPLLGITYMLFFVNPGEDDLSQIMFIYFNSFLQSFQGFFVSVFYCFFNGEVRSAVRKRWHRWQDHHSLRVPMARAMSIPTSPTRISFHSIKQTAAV
T3 sequence (P24387 whole entry): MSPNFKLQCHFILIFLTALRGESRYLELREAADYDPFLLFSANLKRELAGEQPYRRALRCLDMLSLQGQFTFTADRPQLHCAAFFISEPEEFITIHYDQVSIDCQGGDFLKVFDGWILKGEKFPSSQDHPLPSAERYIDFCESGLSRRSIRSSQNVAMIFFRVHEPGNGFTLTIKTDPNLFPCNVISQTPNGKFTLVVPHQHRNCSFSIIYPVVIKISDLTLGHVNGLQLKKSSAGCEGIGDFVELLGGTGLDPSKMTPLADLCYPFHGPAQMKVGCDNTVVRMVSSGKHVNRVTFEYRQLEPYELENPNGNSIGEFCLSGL

[8] = target: T3, Corticotropin-releasing factor receptor 2/Corticotropin-releasing factor-binding protein; assay: Dose Response confirmation of uHTS hits for small molecule antagonists of the CRF-binding protein and CRF-R2 receptor complex.; assay type: functional; conditions: read-out: IC50_Mean
[9] = target: T4, High affinity choline transporter 1 (Homo sapiens, UniProt Q9GZV3); assay: CHT inhibitors, dose response, cell-based, 5-point CRC, membrane potential dye (AID 504840); assay type: functional
T4 sequence (Q9GZV3 whole entry): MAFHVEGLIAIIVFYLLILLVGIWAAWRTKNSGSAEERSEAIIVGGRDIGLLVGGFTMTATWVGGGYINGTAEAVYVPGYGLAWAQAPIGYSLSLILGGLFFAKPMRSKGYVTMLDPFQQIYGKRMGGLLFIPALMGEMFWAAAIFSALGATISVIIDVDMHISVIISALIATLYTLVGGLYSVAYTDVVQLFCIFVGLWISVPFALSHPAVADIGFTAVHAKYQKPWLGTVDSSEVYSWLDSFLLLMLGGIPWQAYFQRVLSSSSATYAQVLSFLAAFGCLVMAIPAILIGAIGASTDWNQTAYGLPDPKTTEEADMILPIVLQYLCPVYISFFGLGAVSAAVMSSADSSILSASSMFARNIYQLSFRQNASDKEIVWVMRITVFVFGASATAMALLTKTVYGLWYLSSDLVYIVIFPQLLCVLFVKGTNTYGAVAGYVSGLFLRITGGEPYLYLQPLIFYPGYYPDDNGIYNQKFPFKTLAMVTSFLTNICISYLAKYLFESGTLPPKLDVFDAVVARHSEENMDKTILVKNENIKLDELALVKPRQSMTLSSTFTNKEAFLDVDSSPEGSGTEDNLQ

Structure (SMILES) | AC50 [1] | AC50 [2] | AC50 [3] | IC50 [5] | IC50 [6] | also measured
COc1ccc(C2=NS(=O)(=O)N(C)C(C(=O)N3CCc4ccccc4C3)=C2)cc1OC | 4.99 µM (active) | 4.43 µM (active) | 69.3 µM (active) |  |  | 
c1ccc2c(c1)OCCc1c-2[nH]c2ccccc12 |  |  |  |  |  | IC50 [4]: > 100 µM (inactive)
CCOC(=O)c1c(-c2ccccc2)csc1NC(=O)C1CCCO1 (stereo not drawn) |  |  |  | > 66 µM (inactive) | > 66 µM (inactive) | 
O=C(NC(=S)Nc1ccccc1O)c1ccccc1Cl |  |  |  | > 66 µM (inactive) | > 66 µM (inactive) | 
CC1CCN(Cc2ccc(-c3nnn(CC(=O)Nc4ccccc4Cl)n3)cc2)CC1 | 1.77 µM (active) | 3.25 µM (active) | > 70 µM (inactive) |  |  | 
Nc1n[nH]c(Sc2c([N+](=O)[O-])cc(C(F)(F)F)cc2[N+](=O)[O-])n1 |  |  |  | > 66 µM (inactive) | > 66 µM (inactive) | 
CC(C)(C)c1nnc(N=C(S)Nc2ccccc2)s1 |  |  |  | > 66 µM (inactive) | > 66 µM (inactive) | 
Cc1ccc(C(=O)N2c3ccccc3N(Cc3ccccc3)C(=O)C2(C)C)cc1 | 6.92 µM (active) | 4.11 µM (active) | > 70 µM (inactive) |  |  | EC50 [7]: > 53 µM (inactive); IC50 [8]: 5.66 µM (active)
Cc1ccc(S(=O)(=O)Nc2ccc3ncccc3c2)cc1 | 2.2 µM (active) | 29.3 µM (active) | 45.9 µM (active) |  |  | 
CC1CCCCC1NC(=O)c1cccc(N2C(=O)C3C4C=CC(C4)C3C2=O)c1 (stereo not drawn) |  |  |  |  |  | IC50 [9]: 14.5 µM (active)
Cc1nn2cc(-c3ccc(Cl)cc3)nc2s1 |  |  |  |  |  | IC50 [4]: 15.6 µM (active)
CC(c1ccccc1)N1CCc2[nH]c(=S)[nH]c(=O)c2C1 (stereo not drawn) |  |  |  | > 66 µM (inactive) | > 66 µM (inactive) | 
COc1cc2sc3ccc(C#Cc4ccc(N)cc4)cc3c(=O)c2cc1OC |  |  |  |  |  | IC50 [4]: > 100 µM (inactive)
